In the assay the test system is secreted IL-8 in normal human epidermal keratinocytes (NHEK). The experiment in a line: IL-8 secretion in PMA-stimulated NHEK (anti-inflammatory test). It is filed as cell-based. The protocol:
In an exemplary test, NHEK were cultured in a medium for 24 hours. […] Then the culture medium was removed and replaced with another culture medium containing or not (control) the […] methyl ester or the reference compound and containing an inflammatory inducer (PMA) and the cells were incubated for 24 hours. A control without inducer was performed in parallel. After incubation, the culture supernatants were collected in order to measure the quantity of secreted IL-8.

For the compound `COC(=O)[C@@]1(C)CC[C@]2(C)CC[C@]3(C)C(=CC(=O)[C@@H]4[C@@]5(C)CC[C@H](O)C(C)(C)[C@@H]5CC[C@]43C)[C@@H]2C1` [Cyrrhetinic methyl ester, cyrrhetinic methyl ester], the “% Stimulated Control” value by setting is: (15.625 μM) 42%; (31.25 μM) 28%; (62.5 μM) 28%. For the same compound, the “Avg. IL-8” value was 1349 pg/mL (15.625 μM), 907 pg/mL (31.25 μM) and 902 pg/mL (62.5 μM). Further, the “% Inhibition” value is, setting by setting: (IL-8 secretion, 15.625 μM) 59%; (IL-8 secretion, 31.25 μM) 73%; (IL-8 secretion, 62.5 μM) 73%. The “inhibition of IL-8 secretion” value (maximum over tested concentrations (up to)) was at most 73%.
Regarding `CC1(C)[C@@H](O)CC[C@]2(C)[C@H]3C(=O)C=C4[C@@H]5C[C@@](C)(C(=O)O)CC[C@]5(C)CC[C@@]4(C)[C@]3(C)CC[C@@H]12` [Glycyrrhetinic acid, glycyrrhetinic acid], the “% Stimulated Control” value (0.5 μM) is 95%, the “% Stimulated Control” value (1 μM) came out at 108% and the “% Stimulated Control” value (2 μM) was determined as 139%. Further, the “Avg. IL-8” value (0.5 μM) was 3037 pg/mL, the “Avg. IL-8” value (1 μM) came to 3470 pg/mL and the “Avg. IL-8” value (2 μM) came to 4450 pg/mL. Further, the inhibition at 0.5 µM (Homo sapiens, IL-8 secretion, 0.5 μM) came out at 5%. In addition, where the note is “Homo sapiens, IL-8 secretion, 1 μM”, the inhibition at 1 µM is -9%. Moreover, for the setting “Homo sapiens, IL-8 secretion, 2 μM”, the inhibition at 2 µM is -40%.
`CN[C@@H]1C[C@H]2O[C@@](C)([C@@H]1OC)n1c3ccccc3c3c4c(c5c6ccccc6n2c5c31)C(=O)NC4` [Staurosporine, staurosporine]: for the setting “10^−9M”, the “% Stimulated Control” value amounted to 18% and the “Avg. IL-8” value is 588 pg/mL.
